In US6242432A, “Antithrombotic organic nitrates” (Nicox S.A., priority 1996, dated 2001):

Assays:
[1] = system: thrombosis induced by collagen plus adrenaline; experiment: Antithrombotic activity: collagen plus adrenaline induced thrombosis/death; assay type: in vivo, male Charles River rats of the Swiss strain; details: 10 mg/kg oral daily for 5 days; collagen plus adrenaline 100 μM into caudal vein
Experimental: (§1) The products from Examples 1 and 2 had been administered in vivo always as 2%-by-weight suspensions in carboxymethyl cellulose.
(§2) The experimental groups were made up of 6 to 8 samples to allow appropriate statistical evaluation, which was carried out when needed.
5 groups of male Charles River rats of the Swiss strain, 15 to 20 g, received a daily oral dose of 10 mg/kg of, respectively, NO-ENA, enalapril, NO-TIM, timolol or vehicle for 5 days. At an appropriate time on the fourth day food (but not water) was withdrawn. 18 to 20 hours later the animals received the last treatment. One hour later the animals were injected into the caudal vein with 0.1 ml of a collagen (type 6, Sigma) mixture plus adrenaline hydrochloride (100 μM) diluted in a solution of 0.154 M sodium chloride. As previously explained (Cirino G. et al., Thrombosis Reasearch 79, 73, 1995), injection of this mixture caused death within 3 minutes in 90% of the control animals.

[2] = system: platelet aggregation induced by collagen; experiment: Antiplatelet activity: inhibition of collagen-induced platelet aggregation in vivo; set-up: species or system male Wistar rats; details: rats, 10 mg/kg oral daily for 5 days; collagen 2 mg/kg i.v.; per-cent inhibition of the control group
Experimental: as §1, §2
The ability of NO-ENA and NO-TIM to inhibit platelet aggregation was evaluated using an in vivo model as described by Pinon (J. Pharmacol. Methods 12,79,1989). 5 groups of male Wistar rats (200 to 250 g) received an oral daily dose of 10 mg/kg of respectively, NO-ENA, enalapril, NO-TIM, timolol or vehicle for 5 days. At an appropriate time on the forth day food (but not water) was withdrawn. 18 to 20 hours later the animals received the last treatment. One hour later the animals were anaesthetized with 10% urethane ([…] intraperitoneally) and the left jugular vein and right carotid artery were incannulated. Collagen (type 6, Sigma) was then administered intravenously at a dose of 2 mg/kg. Three minutes later two blood samples (A and B) were collected from the carotide artery using 2.5-ml plastic syringes in the following manner: sample A, 0.4 ml of blood in 1.6 ml of EDTA/formalin buffer (ETDA tetrasodium salt 24 mM, KH2 PO4 1.3 mM, Na2 PO4 13.4 mM), the samples were then transferred into 5-ml polystyrene test tubes and allowed to settle for 15 minutes at ambient temperature. After this time, the platelet aggregations in sample A were fixed in formalin, while those from sample B were treated with EDTA. Platelet count was then made in each sample using a conventional microscope. The count for sample B was the total number of platelets, while for sample A were considered only non-aggregated platelets. The results were expressed as per-cent aggregation, calculated as follows: {[1-(platelet count in sample A)/(platelet count in sample B)]×100}.

[3] = Plasma/aqueous humor concentration ratio by HPLC (ocular safety); assay type: in vivo; details: rabbits, topical, versus timolol
Experimental: Furthermore, for NO-TIM, the ratio between product concentrations in plasma (P) and aqueous humor (AH) versus timolol was determined by an HPLC method.

intraocular pressure = experiment: Ocular hypotensive activity, topical application in rabbits; assay type: in vivo; details: topical application of 100 μg
[4] = system: bronchoconstriction induced by capsaicin; experiment: Effects on capsaicin-induced bronchoconstriction; assay type: in vivo, female Guinea pigs; details: Guinea pigs, 10 mg/kg intraduodenal; capsaicin 1 μg/kg 45 min later; vehicle = 100
Experimental: Bronchoconstriction induced by capsaicin in Guinea pigs is an animal model related to the ability of ACE (angiotensin-converting enzyme) inhibitors to cause cough in patients (Subissi et al., J. Cardiovasc. Pharmacol.20/1,139-146, 1992).
Adopted test conditions were as previously described by Del Soldato et al. (J. Pharmacological Methods 5, 279, 1981). Female Guinea pigs weighing 300 to 400 g were anaesthetised by intraperitoneal injection of sodium 5,5-diethylbarbiturate (200 mg/kg) and maintained under artificial respiration at constant positive pressure. The right jugular vein was incannulated for administering […]. By a median incision of the abdomen, the duodenum was removed and through a small incision the tip of a suitable polyethylene cannula was inserted and fixed. The other end of the cannula was connected to a syringe for intraduodenal administration of NO-ENA (10 mg/kg), enalapril (10 mg/kg) or vehicle. […] Before and after injection of capsaicin, changes in the tidal area were measured by a modified Konzett apparatus connected to a suitable polygraphic amplifier (Hewlett Packard).
The results were calculated as the ratio of the responses obtained before and after administration of the test compound, expressed as a % of the response obtained with the vehicle alone, shown in Table 4.

[5] = system: arterial hypertension induced by L-NAME; experiment: Antihypertensive activity: L-NAME induced arterial hypertension; assay type: in vivo, male Wistar rats; details: rats, 10 mg/kg intravenous daily for 5 days, 1 h after treatment, vehicle 170 ± 7, * P < 0.05 versus the other two groups
Experimental: as §1, §2
The ability of NO-ENA to inhibit hypertension was evaluated using an in vivo model as described by Ribeiro et al. (Hypertension 20, 298, 1992). 5 groups of male Wistar rats (235 to 284 g) received a daily intravenous dose of 10 mg/kg of, respectively, NO-ENA, enalapril, NO-TIM, timolol or vehicle for 5 days. Arterial hypertension was induced by administration of N^w -nitro-L-argininemethyl ester (L-NAME) in the drinking water for 6 weeks. L-NAME was dissolved in the drinking water at a concentration of 60 to 70 mg 100 ml^-1 so as to administer a daily amount of about 60 mg kg^-1. One hour after treatment the systemic blood pressure was measured by the tail-cap method (Zats, Lab. Anim. Sci.42, 198, 1990).

| BRONCHOCONSTRICTIVE RESPONSE (% of the response obtained with the vehicle alone) [4] [%] | SMILES | ANTITHROMBOTIC ACTIVITY (inhibition percentage compared to the control group) [1] [%] | ANTIPLATELET ACTIVITY (per-cent inhibition of platelet aggregation versus vehicle control) [2] [%] | P/AH ratio (plasma/aqueous humor concentration), times lower than that for timolol [3] [times] | duration of intraocular pressure reduction (intraocular pressure) | reduction of intraocular pressure (intraocular pressure) [mmHg] | reduction of intraocular pressure versus timolol and enalapril (intraocular pressure) | MEAN BLOOD PRESSURE [5] [mmHg] |
| --- | --- | --- | --- | --- | --- | --- | --- | --- |
|  | CC(C)(C)NC[C@H](O)COc1nsnc1N1CCOCC1 [TIMOLOL, reference compound] | 6 | 2 |  |  |  |  |  |
|  | CC(C)(C)NC[C@H](COc1nsnc1N1CCOCC1)OC(=O)CCCO[N+](=O)[O-].O=C(O)/C=C\C(=O)O [NO-TIM, (R)-(4-nitroxy)butanoate of 1-[(1,1-dimethylethyl)amino]-3-{[4-(4-morpholinyl)-1,2,5-thiadiazol-3-yl]oxy}-2-propyl maleate] | 44 | 58 | 5.5 | more than 6 hours | 7 | more pronounced and more lasting |  |
| 72 | CCOC(=O)C(CCc1ccccc1)NC(C)C(=O)N1CCC[C@H]1C(=O)Oc1cccc(CO[N+](=O)[O-])c1 (stereo partly shown) [NO-ENA] | 53 | 65 |  | more than 6 hours | 6 | more pronounced and more lasting | 115 ± 4 |
| 327 | CCOC(=O)[C@H](CCc1ccccc1)N[C@@H](C)C(=O)N1CCC[C@H]1C(=O)O [ENALAPRIL, reference compound] | 11 | 15 |  |  |  |  | 163 ± 5 |
